Experimental data from patent US20260374739A1, “SMALL MOLECULAR WEIGHT CHEMICAL COMPOUND TO ANTAGONIZE EPH-EPHRIN TETRAMERIZATION AND INHIBIT BIDIRECTIONAL SIGNALING” (THE BOARD OF REGENTS OF THE UNIVERSITY OF TEXAS SYSTEM, priority 2022, published 2026).

Tests used:
[1] = multi-day IP dosing tolerability; format: in vivo, mouse; conditions: multi-day dosing every 12 hr, up to 40 mg/kg
EphrinB2-EphB4 = biological target: T1, EphrinB2-EphB4 (Homo sapiens, UniProt P54760); experiment: Octet, immobilized human EphrinB2 binding to 50 nM soluble human EphB4
T1 construct: soluble human EphB1-His, EphB2-His, and EphB4-His ectodomains; commercially available human EphrinB1-Fc (EB1), EphrinB2-Fc (EB2), and EphrinB3-Fc (EB3) ectodomain proteins; purchased
T1 sequence (P54760 16-539 limits assumed): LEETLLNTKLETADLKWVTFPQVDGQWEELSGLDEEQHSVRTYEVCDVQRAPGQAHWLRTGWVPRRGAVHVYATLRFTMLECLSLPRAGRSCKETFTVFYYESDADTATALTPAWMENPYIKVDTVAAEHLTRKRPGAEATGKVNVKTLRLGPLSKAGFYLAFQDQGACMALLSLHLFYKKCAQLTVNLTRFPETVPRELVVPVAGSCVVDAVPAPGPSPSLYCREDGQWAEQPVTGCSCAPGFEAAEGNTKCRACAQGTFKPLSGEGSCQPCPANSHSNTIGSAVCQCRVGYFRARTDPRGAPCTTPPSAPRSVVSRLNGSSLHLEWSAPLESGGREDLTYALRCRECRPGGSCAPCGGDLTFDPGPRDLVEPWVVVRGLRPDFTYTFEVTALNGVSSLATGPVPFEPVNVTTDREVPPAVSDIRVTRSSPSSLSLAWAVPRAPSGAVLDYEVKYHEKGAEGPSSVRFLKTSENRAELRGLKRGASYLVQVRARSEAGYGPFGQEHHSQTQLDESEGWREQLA
Description: Studies were conducted to confirm that A20 chemicals can effectively target the human Eph/Ephrin proteins. Octet system was used to first characterize the biophysical interactions of the human B class Eph and Ephrin proteins, and then was tested to assess how A20 may disrupt the interactions. Since the human and rodent proteins are highly conserved, and essentially identical, with EphB2 sharing 99.5% identity between human and mouse, with only 5 of ~1,000 amino acids different, any species-specific differences were not anticipated. Therefore, commercially available human EphrinB1-Fc (EB1), EphrinB2-Fc (EB2), and EphrinB3-Fc (EB3) ectodomain proteins were sparsely immobilized onto biosensors and then exposed to 50 nM of soluble human EphB1-His, EphB2-His, and EphB4-His ectodomains for 800 sec association and 1,000 sec dissociation steps with a total of nine different interactions analyzed. In the absence of A20 chemical, the immobilized human EphrinB proteins bound to their appropriate human EphB target proteins; with EphrinB1 only bound EphB1 and EphB2, EphrinB2 bound all three EphB1, EphB2, and EphB4, and EphrinB3 only bound EphB1 and EphB2 (FIG. 19A-19B). […]

EphrinB3-EphB1 = EphrinB3-EphB1 (Homo sapiens, UniProt P54762); experiment: Octet, immobilized human EphrinB3 binding to human EphB1
Description: Studies were conducted to confirm that A20 chemicals can effectively target the human Eph/Ephrin proteins. Octet system was used to first characterize the biophysical interactions of the human B class Eph and Ephrin proteins, and then was tested to assess how A20 may disrupt the interactions. Since the human and rodent proteins are highly conserved, and essentially identical, with EphB2 sharing 99.5% identity between human and mouse, with only 5 of ~1,000 amino acids different, any species-specific differences were not anticipated. Therefore, commercially available human EphrinB1-Fc (EB1), EphrinB2-Fc (EB2), and EphrinB3-Fc (EB3) ectodomain proteins were sparsely immobilized onto biosensors and then exposed to 50 nM of soluble human EphB1-His, EphB2-His, and EphB4-His ectodomains for 800 sec association and 1,000 sec dissociation steps with a total of nine different interactions analyzed. In the absence of A20 chemical, the immobilized human EphrinB proteins bound to their appropriate human EphB target proteins; with EphrinB1 only bound EphB1 and EphB2, EphrinB2 bound all three EphB1, EphB2, and EphB4, and EphrinB3 only bound EphB1 and EphB2 (FIG. 19A-19B).
Addition of compound also altered dissociation kinetics. […] This is referred to as the “unsurmountable” component of the Eph-Ephrin interaction (FIG. 21C). Additionally, AUC data was graphed for these runs (FIG. 21D). […]

EphrinB3-EphB1, sequence (P54762 18-540 limits assumed): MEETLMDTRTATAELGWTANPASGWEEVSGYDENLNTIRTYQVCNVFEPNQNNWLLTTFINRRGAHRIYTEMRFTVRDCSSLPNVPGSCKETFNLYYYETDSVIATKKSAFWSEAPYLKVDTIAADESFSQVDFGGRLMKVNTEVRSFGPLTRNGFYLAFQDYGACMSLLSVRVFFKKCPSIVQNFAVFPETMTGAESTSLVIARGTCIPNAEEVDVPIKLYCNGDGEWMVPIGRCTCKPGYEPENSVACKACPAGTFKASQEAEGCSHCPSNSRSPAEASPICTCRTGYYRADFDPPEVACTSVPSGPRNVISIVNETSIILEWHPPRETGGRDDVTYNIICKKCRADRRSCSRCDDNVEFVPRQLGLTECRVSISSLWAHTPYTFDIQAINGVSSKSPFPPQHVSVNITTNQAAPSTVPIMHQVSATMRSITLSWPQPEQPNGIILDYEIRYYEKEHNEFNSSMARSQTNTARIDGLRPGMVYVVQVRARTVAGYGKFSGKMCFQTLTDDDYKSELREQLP

Compound: Oc1c(Br)cc(CN2CCOCC2)c2cccnc12 [Compound 5, 7-bromo-5-(morpholinomethyl)quinolin-8-ol]
- tolerability [1]: well tolerated
- absolute IC50 (EphrinB2-EphB4; A20 salt up to 100 μM): absence of an absolute IC50
- association slope (EphrinB2-EphB4; in presence of A20, role: inhibitor, 5° without): 3 °
- reduction of tetramer formation (EphrinB3-EphB1; EB3-EphB1, A20): 40%
- IC (maximum) (EphrinB3-EphB1; read-out: concentration producing maximum inhibition): 10 µM
